Results from US20260355136A1, “PROSTACYCLIN FOR TREATING PULMONARY HYPERTENSION” (Shanghai Forefront Pharma Co., Ltd., priority 2023, published 2026).

Tests used:
Format in all cases: in vivo, male Sprague-Dawley rats
[1] = Body weight of MCT-modeled rats; conditions: intragastric; for Body weight on Day 0: Day 0 = MCT injection, before dosing; for Body weight on Day 14: Day 14 = start of dosing; for Body weight at sampling: sampled on Day 27
Procedure: (§1) Twenty-eight 7-week-old male Sprague-Dawley rats (average weight of 200-250 g) were purchased from Vital River and were raised at the experimental site for 1 week of acclimatization (temperature 20 °C-26 °C, humidity 30%-70%, light-dark cycle ratio 1:1) until they were 8 weeks old.
(§2) Twenty-eight rats were randomized into the following 6 groups, including dosing groups, positive control groups, a negative control group and a healthy control group, and each was marked with ear tags.
(§3) • (1) Preparation of monocrotaline (MCT) solution: An adequate amount of MCT was weighed into a 50 mL solution of 20% ethanol-normal saline. After gentle shaking, the solution was transferred to a 50-mL centrifuge tube, and placed tilted in a thermostatic shaker at 37 °C, 220 rpm for 12-14 hours to fully dissolve until no visible crystalline particles observed. • (2) Injection of MCT solution: The skin on the dorsal cervical region of the rats was gently lifted, MCT solution was subcutaneously injected at a dose of 60 mg/kg using a 1-mL syringe and the day was recorded as Day 0. • (3) Healthy control: The same volume of normal saline was injected in the same manner.
According to the concentration of 0.6 mg/mL and 1.2 mg/mL (3-mg/kg/day and 6-mg/kg/day dose groups), appropriate amounts of the test compound were weighed and dissolved in corresponding volume of pure water by shaking to obtain transparent solution, respectively; • (2) The resulting solutions were stored in a 4 °C refrigerator. Remove and equilibrate to room temperature before use;
(§4) Starting from Day 14, the rats were weighed daily, and the corresponding solutions (test compound or normal saline) were administered intragastrically according to the grouping protocol until Day 27, for a total of 14 days; the intragastric dose was 0.5 mL/100 g, and the body weight and survival data of the rats were recorded.
(§5) Note: Due to the limited total amount of Compound 1, rats in Group 1 were actually administered for 13 days, rats in Group 2 were actually administered for 12 days, and all were measured and sampled on Day 27; rats in Groups 3-6 were actually administered for 14 days, and all were measured and sampled on Day 27.

MCT modeling rats [2] = experiment: Fulton index (RV/(LV+S)) measurement in MCT-modeled rats
Procedure: The Fulton index reflects the organ remodeling caused by PAH. […] This is a goal that current pharmaceutical drugs for treating PAH cannot achieve, but one that new drugs for PAH aim to reach.
as §1, §2
as §3, with “manner. […]” for “manner.”
as §4, with “recorded. […]” for “recorded.”
After separating the heart, the non-ventricular parts (such as the atria, blood vessels, and valve rings) were cut off. […] RV/(LV+S) was calculated as the Fulton index. […]
(§6) Rats in Groups 3-6 were actually administered for 14 days, and all were measured and sampled on Day 27. […]

MCT modeling rats [3] = experiment: Hemodynamic measurement of right ventricular systolic pressure (RVSP) by right cardiac catheterization in MCT-modeled rats
Procedure: as §1, §2
as §3, with “manner. […]” for “manner.”
as §4, with “recorded. […]” for “recorded.”
as §5, §6

## CCCCC[C@H](O)CC[C@@H]1[C@H]2Cc3cccc(OCC(=O)O)c3C[C@H]2C[C@H]1O [Compound C1, Treprostinil sodium 5.5-hydrate]
[1]; 3 mg/kg/day group
  Body weight on Day 0: 330 + 25.11 g
  Body weight on Day 14: 430 + 34.15 g
[1]; 3 mg/kg/day
  Body weight at sampling: 431 + 58.03 g
[1]; 6 mg/kg/day group
  Body weight on Day 0: 316 + 4.35 g
  Body weight on Day 14: 413 + 15.81 g
[1]; 6 mg/kg/day
  Body weight at sampling: 436 + 9.65 g
MCT modeling rats [2]; 3 and 6 mg/kg
  Fulton index compared with healthy control group: still higher than that of the healthy control group
  Fulton index reduction of rat heart: can significantly reduce the Fulton index of rat heart
MCT modeling rats [2]; 6 vs 3 mg/kg
  Fulton index, difference between dosing groups: no significant difference in the effects between the two dosing groups
MCT modeling rats [3]; 3 and 6 mg/kg
  RVSP compared with healthy control group: still higher than that in the healthy control group
  RVSP reduction in rats: can significantly reduce RVSP in rats
MCT modeling rats [3]; 6 vs 3 mg/kg
  RVSP, difference between dosing groups: no significant difference in the effects between the two dosing groups
